The results in this text go back to patent US6607893B2, “Diacylglycerol acyltransferase (DGAT) assay” (Warner-Lambert Company, priority 2000, dated 2003).

Test [1] has as its system diacylglycerol acyltransferase (DGAT). In words: DGAT enzyme assay, rat liver microsomes, [14C]triglyceride by TLC or 1-step extraction. Particulars: for Production of [14C]TAG: 0.8% solvent in reaction. In general terms: Liver microsomes are vesicles of endoplasmic reticulum, rich in cytochrome P450 enzymes.
Description: Rats were euthanized using CO2 affixation; their livers were immediately removed and placed in ice-cold microsome buffer (MC buffer) consisting of 125 mM sucrose, 3.0 mM imidazole, pH 7.4. Livers were cut into approximately 10 pieces, placed into 20 mL of ice cold MC buffer per liver and homogenized on ice in a glass Dounce power homogenizer using 10 up-and-down strokes. Homogenates were centrifuged at 1700 rpm in a Beckman JA-14 rotor for 10 minutes at 4° C. The supernatant was removed and placed on ice. The pellet was resuspended in 4.0 mL MC buffer per liver, rehomogenized as described above, and centrifuged at 1700 rpm in a Beckman JA-14 rotor for 10 minutes at 4° C. This supernatant was combined with the previous supernatant and centrifuged at 13,000 rpm in a Beckman JA-14 rotor for 20 minutes at 4° C. The supernatant was transferred to new tubes on ice, and the pellet was discarded. The supernate was centrifuged at 35,000 rpm in a Beckman Ti-70 rotor for 60 minutes at 4° C., and the resulting pellet, containing microsomal membranes, was resuspended in ice cold MC buffer using 17 strokes of a glass Dounce power homogenizer. Microsomal protein concentrations were determined by the Dc Protein Assay, and BSA was used to generate the standard curve. Microsomes were diluted to final protein concentration of 10 to 20 mg/mL. Microsomes were aliquoted into 1.0-mL tubes and stored in a liquid N2 cryofreezer.
DGAT Assay Buffer (DAB): 0.25 M sucrose, 1.0 mM EDTA, pH 8.0, 150 mM Tris-HCl, pH 7.4, and 1.25 mg/mL fatty acid free BSA.
Compounds were dissolved in DMSO and diluted to make 10× with DAB (10×compound) and kept at room temperature until the assay was performed.
Frozen aliquots of microsomes (10-20 mg/mL total protein) were thawed on ice and diluted to make a 5× working stock at the indicated concentrations with MC buffer and stored on ice until use.
The DGAT assay reaction was performed as follows: 5 μL of 10× compound was added to Perkin Elmer thin-walled reaction tubes followed by 35 μL of DGAT substrate mixture and vortexed. The reaction was started by the addition of 10 μL of the diluted 5× microsomes, vortexed, and incubated in a Perkin Elmer 9600 thermocycler for the indicated times and temperatures.
Reactions were stopped by the addition of 10 μL of 0.75N HCl. Samples were then spotted onto TLC plates and dried in a gravity convection oven at 70° C. for 30 minutes. Plates were developed in a 27×7.5×26 cm TLC chamber for 60 minutes at room temperature in 102 mL of isooctane:ethyl ether:acetic acid (75:25:2) for triglyceride determination. TLC plates were removed from the chamber, dried in a gravity convection oven at 70° C. for 30 minutes, wrapped in cellophane, and exposed to phosphorimager plates overnight. Phosphorimager plates were scanned on a phosphorimager and images were analyzed using ImageQuant software. A [^14C]glycerol trioleate standard was titrated onto TLC plates for mass determinations. All statistics were performed using Microsoft Excel's analysis software using a two-tailed t-test for means.
Reactions were stopped by the addition of 150 μL of AESSM followed by the addition of 300 μL of n-heptane. The mixture is pipetted 5× to mix and allowed to separate for 5 minutes at room temperature. The entire top phase, n-heptane phase, is removed to new tubes and spotted onto silica TLC plates and processed as described above (see TLC method) or placed into 5-mL scintillation vials containing scintillation cocktail and counted.
In test [2] the target is T1, diacylglycerol acyltransferase (DGAT).
T1 construct: IC50, DGAT activity; other: Group 1 rat liver microsome preparation; 1-Step/Scintillation; 37° C., 5 minutes; 1-Step/TLC; TLC; other: Group 2 rat liver microsome preparation; 1-Step/Scintillation
Briefly: 96-well DGAT mass screen assay. Format: biochemical, rat. The following applies: 22° C., 60 minutes. The procedure:
Plates are loaded onto the robot carousel. […] The robot arm transfers the plate to multidrop 2 for the addition of 20 μL of diluted microsomes and shaken for 1.0 minute at room temperature. The robot arm transfers the plate back to the carousel where it incubates for 1.0 hour at room temperature. The robot arm transfers the plate to multidrop 3 for the addition of 150 μL of AESSM. The robot arm transfers the plate to the multimek to begin the extraction. The reaction volume is transferred to a 96-[…] polypropylene extraction plate on the multimek. The tips are washed 3×100 μL of DI H2O in a reagent reservoir with a continuous flow of DI H2O. The multimek then washes out the 96-well reaction plate with 3×100 μL of n-heptane and transfers the volume to the extraction plate. The multimek mixes the volume in the extraction plate 6×100 μL, and the plate sits for 10 seconds. The tips are washed 3×100 μL of DI H2O in a continuous flow reagent reservoir. One hundred microliters of the top n-heptane phase is transferred to a Flash plate. The robot arm transfers the Flash plate to a carousel fitted with a fume hood, which allows the n-heptane to evaporate for a minimum of 6 hours. The plates are transferred to a plate sealer to be sealed, transferred to the top count scintillation counter, and counted for 1.0 minute. Data are collected and reported to the Trillium based compound management system.

As for `CCO` [95% EtOH, ethanol], the “DGAT activity increase above control” value in test [1] (0.5% ethanol) stood at 121%. In test [1], the “Production of [14C]TAG” value is 104±0.4 pmoles [14C]TAG/mg microbe pro. Besides, in test [1] (4.0% ethanol), the “DGAT activity increase above controls” value amounted to 180%.
Take `CC(C)=O` [Acetone, acetone]: in test [1] (10.0% acetone), the “DGAT activity increase above controls” value is recorded as 394%.
Regarding `ClC(Cl)Cl` [Chloroform, chloroform], the “DGAT activity, % of control” value in test [1] (0.35% chloroform) came out at 955%.
Take `C[S+](C)[O-]` [DMSO]: the “effect on DGAT activity” value in test [1] (37° C. and 22° C.) is “decreases DGAT activity in a linear manner”. Moreover, the “DMSO concentration at which DGAT assay showed significant changes” value in test [1] (37° C. and 22° C., p<0.05) turned out to be 4.5%.
In general, IC50 refers to the concentration that gives 50% inhibition. On to `Cc1ccc2c(c1)Oc1ccc(NC(=O)c3ccc(O)cc3)cc1C(=O)N2C` [N-(7,10-dimethyl-11-oxo-10,11-dihydro-dibenzo[b,f][1,4]oxazepin-2-yl)-4-hydroxy-benzamide], for which the IC50 in test [2] (manually extracted samples) is 1700 nM; in test [2] (plate 1, 96-well mass screen extraction), 1500 nM; in test [2] (plate 2, 96-well mass screen extraction), 1270 nM; in test [1] (read-out: IC50, DGAT activity, Group 1 rat liver microsome preparation, 1-Step/Scintillation, 37° C., 5 minutes) it was 1660 nM; in test [1] (read-out: IC50, DGAT activity, Group 1 rat liver microsome preparation, 1-Step/TLC, 37° C., 5 minutes) it was 950 nM; in test [1] (read-out: IC50, DGAT activity, Group 1 rat liver microsome preparation, TLC, 37° C., 5 minutes), 1070 nM. For the same compound, the IC50 in test [1] (read-out: IC50, DGAT activity, Group 2 rat liver microsome preparation, 1-Step/Scintillation, 37° C., 5 minutes) came to 1120 nM; in test [1] (read-out: IC50, DGAT activity, Group 2 rat liver microsome preparation, 1-Step/TLC, 37° C., 5 minutes), 1140 nM; in test [1] (read-out: IC50, DGAT activity, Group 2 rat liver microsome preparation, TLC, 37° C., 5 minutes) it was 1520 nM; in test [1] (read-out: IC50, DGAT activity, Group 3 rat liver microsome preparation, 1-Step/Scintillation, 37° C., 5 minutes) it was 2050 nM; in test [1] (read-out: IC50, DGAT activity, Group 3 rat liver microsome preparation, 1-Step/TLC, 37° C., 5 minutes), 2300 nM; in test [1] (read-out: IC50, DGAT activity, Group 3 rat liver microsome preparation, TLC, 37° C., 5 minutes), 1740 nM. Besides, the IC50 in test [1] (read-out: IC50, DGAT activity, Group 4 rat liver microsome preparation, 1-Step/Scintillation, 37° C., 5 minutes) was 1100 nM; in test [1] (read-out: IC50, DGAT activity, Group 4 rat liver microsome preparation, 1-Step/TLC, 37° C., 5 minutes), 730 nM; in test [1] (read-out: IC50, DGAT activity, Group 4 rat liver microsome preparation, TLC, 37° C., 5 minutes), 910 nM; in test [1] (read-out: IC50, DGAT inhibition, 0.8% ethanol and TLC), 2600 nM; in test [1] (read-out: IC50, DGAT inhibition, 0.8% ethanol extracted (1-step) and run on TLC), 2400 nM; in test [1] (read-out: IC50, DGAT inhibition, […] acetone:chloroform (8:2) and TLC) it was 2000 nM. The IC50 in test [1] (read-out: IC50, DGAT inhibition, […] acetone:chloroform (8:2) extracted (1-step) and run on TLC) worked out at 2500 nM.
As for `CCCCCCCC/C=C\CCCCCCCC(=O)OCCOCC(OCCO)C1OCC(OCCO)C1OCCO` (stereo not drawn) [Tween 80], in test [1], the “Production of [14C]TAG” value is 20±0.02 pmoles [14C]TAG/mg microbe pro.
